Experimental data taken from PMC6973269, “Lipidated Stapled Peptides Targeting the Acyl Binding Protein UNC119” (Chembiochem, 2019).
Where a SMILES comes first, the peptide text is derived from it. Bridges are numbered along the chain shown (N, C = ends). [ ]: non-standard residue; d: D form. The star is where a group is joined. Myristoyl = CCCCCCCCCCCCCC(=O)*; S5 = C=CCCC[C@](C)(N)C(=O)O

Assays:
UNC119a = target: T1, UNC119a (Homo sapiens, UniProt Q13432); assay: Fluorescence anisotropy binding assay, UNC119a; conditions: 5 nM fluorescein-labeled peptide, 4 h at room temperature, 30 mM Tris pH 7.5, 100 mM NaCl, 1 mM TCEP, 0.01% Chaps, triplicate, error 1 σ
T1 construct: made in house; host or cells: E. coli
Procedure: (§1) Fluorescence anisotropy assay
(§2) UNC119a/b was serially diluted in a buffer containing 30 mM Tris (pH 7.5), 100 mM NaCl, 1 mM TCEP and 0.01% Chaps (assay buffer), treated with 5 nM fluorescein-labeled peptides and incubated for 4 h at room temperature. Binding assays were performed in 384-well, small volume, black flat-bottom, non-binding plates (Greiner). Fluorescence polarization values (λex = 470 nm, λem = 525 nm) were determined using a Safire II plate reader (Tecan) at room temperature. All measurements were performed in triplicates. After correction for changes in fluorescence intensity upon binding, the fluorescence anisotropy data were converted into fraction bound (equation 1) of the FITC- labeled peptide and fitted via non-linear regression in Prism 5.0 (Graphpad).[1] fraction bound = A−Afree (1)
(§3) Afree: anisotropy of free fluorophore
(§4) Abound: anisotropy of bound fluorophore
(§5) Q: change in fluorescence intensity between free and bound state
(§6) Protein expression and purification
(§7) UNC119a and UNC119b were expressed in E. coli according to the previously reported procedures.[2] […]
(§8) Additionally, HeLa cells were supplemented with penicillin and streptomycin. All cultures were routinely tested and found to be free of mycoplasma contamination.

UNC119b = target: T2, UNC119b (Homo sapiens, UniProt A6NIH7); assay: Fluorescence anisotropy binding assay, UNC119b; conditions: 5 nM fluorescein-labeled peptide, 4 h at room temperature, 30 mM Tris pH 7.5, 100 mM NaCl, 1 mM TCEP, 0.01% Chaps, triplicate, error 1 σ
T2 construct: made in house; host or cells: E. coli
Procedure: as §1, §2, §3, §4, §5, §6, §7, §8

MDA-MB-231 cells [1] = assay: Total intracellular peptide concentration by quantitative UPLC-MS; type: in vitro ADME; conditions: for Total drug content, pMols/million cells / Total drug content, Measured Conc: 25 µM compound, 0.5 h; for Total drug content, pMols/million cells: total lysis; for Total drug content, pMols/million cells / Total drug content, Measured Conc / Peptide concentration, total cell, 0.5 h: UPLC-MS; for Fold higher total cell uptake than peptide 10: 25 μM, 30 min, quantitative mass spectrometry; for Fold higher total cell uptake than peptide 10 / Peptide concentration, total cell, 0.5 h: MDA-MB-231 cells; for Total drug content, Measured Conc: concentration in re-suspended cell lysate, dilution factor 10; for Peptide concentration, total cell, 0.5 h: unlabeled peptide 25 μM, 0.5 h incubation, RIPA total lysis, LLOQ given if not detected
Procedure: (§9) Total intracellular and sub cellular concentrations
(§10) […] cells were cultured DMEM (high glucose) supplemented with 10% FCS and 1% Glutamax.
(§11) When 80% confluency cell culture media was removed from each flask and new media containing 25 µM of peptides was added and incubated with cells for 30 min and 72 h. Following peptide incubation, cells were washed twice with PBS, trypsinized and pelleted. Pellets where lysed in RIPA buffer (Perkin Elmer) for total […]
(§12) lysis; or CelLytic NuCLEAR Extraction Kit (SIGMA) for subcellular fractionation. Total protein quantification BCA (Pierce) was performed prior to MS analysis to normalize sample data.
(§13) Total and sub-cellular quantities of peptides 4, 10 and R8 were quantified[3] in lysates by UPLC-MS utilising a Waters Xevo TQ-XS (WBA0259) and a Waters Acquity UPLC system consisting of, Sample Manager (M16UFL953M), Acquity PDA (F17UPD457A), Column Oven (E17CMP703G) and Binary Solvent Manager (E17BUR621G). For peptides 4 and 10 analytical UPLC separation was performed using a Waters CSH C18 1.7 µm, 2.1 x 50 mm column. A gradient was utilized of 97% A to 5% in 4mins, 0.5 min hold, 5% A to 97% in 0.5mins, where A = 0.1% HCOOH (aq) and B = 0.1% HCOOH in MeCN at a flow rate of 0.75 mL/min (Supporting Figure S7). Compound R8 was analyzed in HILIC mode using a Waters BEH Amide 1.7 µm, 2.1 x 100 mm column with a gradient of 30% A to 95% in 1.5 mins, 1 min hold, 95% A to 30% in 1.5 min, 1 min hold at 0.65 mL/min. The Waters TQ-XS was operated in +ve ion Electrospray (ESI) mode with the optimized transitions for PC658-AC, PC658-MYR and Ac-R8 (Supporting Table S3 and Figure S8). The chromatograms at each transition were extracted, smoothed and integrated to give the standard curve. Chromatograms of the samples were treated similarly and by linear regression (1/x) an in-cell concentration was established in the re-suspended cell lysate using the Waters MassLynx TargetLynxTM product (Supporting Tables S4 – S7).

HeLa cells [2] = assay: Cellular uptake of fluorescently labeled peptides by flow cytometry; type: cell-based, human; conditions: fluorescently labeled peptide, 5 μM, 90 min, flow cytometry fluorescence intensity, % of levels observed for R8
Procedure: As the knock‐down of UNC119a was reported to increase the number of cytokinetic and binucleated cells,13 we investigated the influence of UNC119‐binding peptides on cell morphology. Initially, the uptake of fluorescently labeled peptide 4 by HeLa cells was investigated by using flow cytometry (c=5 μM for 90 min, Figure S4 and Table S2). These measurements show cellular uptake of 4 reaching about 50 % of the levels observed for cell‐penetrating peptide octa‐arginine (R8).30 Considering that this cellular uptake was sufficient, we tested the effect of unlabeled peptide 4 on cell morphology. As a reference, we used nocodazole (NC), which inhibits tubulin polymerization thereby inducing cell‐cycle arrest in the G2/M phase that results in cells with increased DNA content because chromosomal DNA has already been duplicated. HeLa and mouse fibroblast L cells were incubated with different peptide concentrations for 72 h prior to quantification of DNA content by using flow cytometry.
Supporting Figure S4. Cellular uptake of fluorescently labeled peptides as determined by fluorescence
intensities using flow cytometry in HeLa cells (90 min incubation at c(peptide) = 5 µM).
(1 picture or pasted object on this page, not shown here)

MDA-MB-231 cells [3] = assay: Subcellular (nucleus, cytosol) peptide concentration by quantitative UPLC-MS; type: in vitro ADME; conditions: for Peptide concentration, cytosol, 0.5 h / Peptide concentration, nucleus, 0.5 h / Peptide concentration, cytosol, 72 h / Peptide concentration, nucleus, 72 h: unlabeled peptide 25 μM, MDA-MB-231 cells, subcellular fractionation, LLOQ given if not detected; for Peptide concentration, cytosol, 0.5 h / Peptide concentration, nucleus, 0.5 h: 0.5 h incubation; for Peptide concentration, cytosol, 72 h / Peptide concentration, nucleus, 72 h: 72 h incubation
Procedure: as §9, §10, §11, §12, §13

HeLa cells [4] = assay: DNA content (4N) by propidium iodide staining and flow cytometry, HeLa cells; type: cell-based, human; conditions: control compound 1 µM (maximum tolerated concentration), 24 h, flow cytometry, triplicate, error 1 σ
Procedure: (§14) 3 x10^4 L or Hela cells were seeded per well in 6–well plates and grown overnight. The following day, cells were treated with the indicated compound concentrations for 72 h or with nocodazole as a control for 24 h). Cells were washed, detached using trypsin and re-suspended in phosphate-buffered saline (PBS).
(§15) Cells were centrifuged at 200xg for 5 min at room temperature (RT) and washed again. Cells were then fixed with 70% ethanol and stained with propidium iodide solution (12 µg/mL propidium iodide (Sigma, Germany), 0.1% (v/v) Triton X-100 and 100 µg/mL DNase-free RNase A (Sigma, Germany) in PBS) for 30 min at room temperature. Cell suspensions were filtered to FACS tubes through a nylon mesh before analysis.
(§16) 10,000 cells for each sample were sorted by the BD LSRII analyzer (Becton Dickinson, USA). FlowJo 6.2.1 software was used for quantification and analysis of all data. For every analysis, FSC and SSC (forward and side scatter, respectively) gating was performed to exclude doublets and debris. In addition, cells were gated for singlets (PI-W vs. PI-A). […]

mouse fibroblast L cells = assay: DNA content (4N) by propidium iodide staining and flow cytometry, L cells; type: cell-based; conditions: control compound 1 µM (maximum tolerated concentration), 24 h, flow cytometry, triplicate, error 1 σ
Procedure: as §14, §15, §16

HeLa cells [5] = assay: Fluorescence microscopy of cell morphology (tubulin antibody, DAPI); type: cell-based, human; conditions: 1 μM, 24 h, fixation, anti-tubulin antibody and DAPI staining
Procedure: 2x10^4 Hela cells were seeded per well in a 24-well plate on cover slips and incubated overnight. Next day, cells were treated with different concentrations of the peptides or DMSO, nocodazole and cytochalasin D as controls and incubated at 37°C and 5% CO2 for the indicated times (72 h or 24 h). Cells were then fixed using 3.7% paraformaldehyde for 15 min at room temperature followed by permeabilization using 0.1% Triton X-100 in PBS for 15 min. Blocking was performed in 2% BSA in PBS containing 0.1% Tween 20 for 1 h at room temperature. Samples were incubated with the indicated primary antibodies (anti-tubulin primary antibody conjugated to FITC) in the blocking solution overnight at 4°C. After washing, cells were incubated with 1 µg/mL DAPI in blocking solution for 1 h at room temperature, followed by three washes with PBS.

[6] = 25 µM compound, 0.5 h, concentration in lysate
[7] = 25 µM compound, 72 h, concentration in lysate

T2 sequence (A6NIH7 whole entry, species assumed): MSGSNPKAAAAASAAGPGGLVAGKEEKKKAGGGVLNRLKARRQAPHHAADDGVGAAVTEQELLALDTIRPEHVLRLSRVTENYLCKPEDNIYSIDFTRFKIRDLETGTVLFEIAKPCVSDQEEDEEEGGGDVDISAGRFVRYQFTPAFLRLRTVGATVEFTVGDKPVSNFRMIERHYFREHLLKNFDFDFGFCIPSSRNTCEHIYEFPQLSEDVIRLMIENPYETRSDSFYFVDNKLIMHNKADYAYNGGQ

SMILES	Kd (UNC119a) [nM]	Kd (UNC119b) [nM]	Total drug content, pMols/million cells (MDA-MB-231 cells [1]) [pMols/million cells]	Fold higher total cell uptake than peptide 10 (MDA-MB-231 cells [1])	Total drug content, Measured Conc (MDA-MB-231 cells [1]) [nM]	Peptide concentration, total cell, 0.5 h (MDA-MB-231 cells [1]) [pmol per 10^6 cells]	Peptide concentration, cytosol, 0.5 h (MDA-MB-231 cells [3]) [pmol per 10^6 cells]	Peptide concentration, nucleus, 0.5 h (MDA-MB-231 cells [3]) [pmol per 10^6 cells]	Peptide concentration, cytosol, 72 h (MDA-MB-231 cells [3]) [pmol per 10^6 cells]	Peptide concentration, nucleus, 72 h (MDA-MB-231 cells [3]) [pmol per 10^6 cells]	other results
CCCCCCCCCCCCCC(=O)NCC(=O)N[C@@H](C)C(=O)NCC(=O)N[C@@H](C)C(=O)N[C@@H](CO)C(=O)N[C@@H](C)C(=O)N[C@@H](CCC(=O)O)C(=O)N[C@@H](CCC(=O)O)C(=O)N[C@@H](CCCCN)C(=O)N[C@@H](Cc1c[nH]cn1)C(=O)N[C@@H](CCCCN)C(N)=O [Peptide 1] (Myristoyl-GAGASAEEKHK-NH2)	7.4	11.2									
CCCCCCCCCCCCCC(=O)NCC(=O)N[C@@H](C)C(=O)NCC(=O)N[C@@H](C)C(=O)N[C@@H](CO)C(=O)N[C@@]1(C)CCCC=CCCC[C@@](C)(C(=O)N[C@@H](CCCCN)C(N)=O)NC(=O)[C@H](CCCCN)NC(=O)[C@H](CCC(=O)O)NC(=O)[C@H](CCC(=O)O)NC1=O [Peptide 4] (Myristoyl-GAGAS[S5]EEK[S5]K-NH2; staple 6-10)	5.5	63.2 ± 14	59.9	more than 100 fold	155	60	<0.001	0.22	0.01	0.45	Cellular uptake relative to octa-arginine (R8) (HeLa cells [2]): about 50%
CC(=O)N[C@@H](CCCNC(=N)N)C(=O)N[C@@H](CCCNC(=N)N)C(=O)N[C@@H](CCCNC(=N)N)C(=O)N[C@@H](CCCNC(=N)N)C(=O)N[C@@H](CCCNC(=N)N)C(=O)N[C@@H](CCCNC(=N)N)C(=O)N[C@@H](CCCNC(=N)N)C(=O)N[C@@H](CCCNC(=N)N)C(N)=O [R8]			51.7	more than 100 fold	108	52	0.58	0.56	0.65	0.64	Sub-cellular drug content, pMols/million cells, Cytoplasm, 0.5 h (MDA-MB-231 cells [3]; 25 µM compound, 0.5 h): 0.584 pMols/million cells; Sub-cellular drug content, pMols/million cells, Nuclear, 0.5 h (MDA-MB-231 cells [3]; 25 µM compound, 0.5 h): 0.563 pMols/million cells; Sub-cellular drug content, Measured Conc, Cytoplasm, 0.5 h (MDA-MB-231 cells [3]; [6]): 3.59 nM; Sub-cellular drug content, Measured Conc, Nuclear, 0.5 h (MDA-MB-231 cells [3]; [6]): 6.91 nM; Sub-cellular drug content, pMols/million cells, Cytoplasm, 72 h (MDA-MB-231 cells [3]; 25 µM compound, 72 h): 0.651 pMols/million cells; Sub-cellular drug content, pMols/million cells, Nuclear, 72 h (MDA-MB-231 cells [3]; 25 µM compound, 72 h): 0.638 pMols/million cells; Sub-cellular drug content, Measured Conc, Cytoplasm, 72 h (MDA-MB-231 cells [3]; [7]): 2.92 nM; Sub-cellular drug content, Measured Conc, Nuclear, 72 h (MDA-MB-231 cells [3]; [7]): 5.73 nM
COC(=O)Nc1nc2ccc(C(=O)c3cccs3)cc2[nH]1 [nocodazole]											DNA-content 4N, HeLa cells (HeLa cells [4]): 68.6 ±4.2%; DNA-content 4N, HeLa cells (HeLa cells [4]; listed as NC): increased numbers of cells with doubled DNA content; DNA-content 4N, L cells (mouse fibroblast L cells): 75.4 ± 15.0%; DNA-content 4N, L cells (mouse fibroblast L cells; listed as NC): increased numbers of cells with doubled DNA content; Effect on HeLa cell morphology (HeLa cells [5]): deformation of the tubulin network
